{"source": "patent US20250388589A1", "about": "“TRICYCLIC HETEROCYCLIC DERIVATIVES, COMPOSITIONS AND USES THEREOF” (Danatlas Pharmaceuticals Co., Ltd., priority 2022, published 2025)", "key": {"[1]": {"target": "hPARG (C-terminal His6-tag) (Homo sapiens (Human), UniProt Q86W56)", "sequence (Q86W56 whole entry)": "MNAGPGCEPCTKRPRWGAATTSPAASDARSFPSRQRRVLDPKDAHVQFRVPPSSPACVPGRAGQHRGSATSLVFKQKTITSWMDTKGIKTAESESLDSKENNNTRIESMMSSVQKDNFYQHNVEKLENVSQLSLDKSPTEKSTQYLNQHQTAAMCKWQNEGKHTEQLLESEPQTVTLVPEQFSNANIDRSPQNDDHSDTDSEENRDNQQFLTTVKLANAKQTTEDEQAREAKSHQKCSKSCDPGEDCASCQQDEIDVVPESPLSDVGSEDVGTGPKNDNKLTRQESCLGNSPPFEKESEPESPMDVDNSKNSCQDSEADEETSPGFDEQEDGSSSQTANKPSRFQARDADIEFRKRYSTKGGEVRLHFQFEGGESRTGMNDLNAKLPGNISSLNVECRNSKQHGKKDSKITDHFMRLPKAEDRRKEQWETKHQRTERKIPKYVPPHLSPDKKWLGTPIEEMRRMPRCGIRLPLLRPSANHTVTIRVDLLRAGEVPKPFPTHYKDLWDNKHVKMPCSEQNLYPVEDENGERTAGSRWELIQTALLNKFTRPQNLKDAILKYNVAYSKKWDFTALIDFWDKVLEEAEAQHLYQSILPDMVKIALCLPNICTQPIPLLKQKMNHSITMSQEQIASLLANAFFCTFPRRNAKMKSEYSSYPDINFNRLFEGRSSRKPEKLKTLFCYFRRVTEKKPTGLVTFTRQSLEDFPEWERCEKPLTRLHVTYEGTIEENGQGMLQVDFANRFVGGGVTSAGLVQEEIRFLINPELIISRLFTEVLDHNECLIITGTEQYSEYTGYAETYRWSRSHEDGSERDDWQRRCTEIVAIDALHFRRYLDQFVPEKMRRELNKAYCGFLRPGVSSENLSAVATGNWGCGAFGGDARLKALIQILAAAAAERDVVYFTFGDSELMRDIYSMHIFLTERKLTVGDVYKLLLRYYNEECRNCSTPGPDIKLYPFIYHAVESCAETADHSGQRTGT", "test": "PARG Enzymatic Activity Assay (HTRF)", "format": "biochemical", "details": "hPARG 65 pM final, biotinylated-NAD ribosylated PARP1 8 nM final", "outline": "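E. coli-expressed enzyme (65 pM final) preincubated 60 min RT with compounds (10-point 4-fold dilution, duplicate) in 50 mM Tris pH 7.4, 3 mM EDTA, 1 mM DTT, 50 mM KCl, 0.01% Tween 20. Biotinylated-NAD ribosylated PARP1 substrate (8 nM final) reacted 10 min RT; Eu-streptavidin/anti-6HIS-XL665 HTRF read 665/620 nm after 60 min. IC50 from 4-parameter Hill fit.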"}, "Kuramochi cell line": {"test_system": "Kuramochi cell line", "test": "Cell Viability Assay (Cell Titer-Glo, 7 days)", "format": "cell-based", "details": "168 h, Kuramochi cells, 7 days incubation, read-out: PARG Cell viability (IC50)", "outline": "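Kuramochi cells in RPMI with 10% FBS, seeded at 400 cells/well, were treated with a 9-point 3-fold dilution series in duplicate for 7 days at 37 °C, 5% CO2. Viability by CellTiter-Glo luminescence, normalised to DMSO and medium-only controls; IC50 from 4-parameter Hill fit.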"}}, "data": [{"smiles": "N#CC1(NS(=O)(=O)c2ccc3c4c(N5CC6CN(C(=O)C7COC7)CC6C5)ncnc4n(-c4nnc(C(F)F)s4)c3c2)CC1", "note": "(centres unmarked) [Example 71, N-(1-Cyanocyclopropyl)-9-(5-(difluoromethyl)-1,3,4-thiadiazol-2-yl)-4-(5-(oxetane-3-carbonyl)hexahydropyrrolo[3,4-c]pyrrol-2(1H)-yl)-9H-pyrimido[4,5-b]indole-7-sulfonamide]", "values": [{"measurement": "IC50", "setting": "[1]", "result": "< 100", "unit": "nM"}, {"measurement": "IC50", "setting": "Kuramochi cell line", "result": "100 to 1000", "unit": "nM"}]}, {"smiles": "CC(C)C(=O)N1CCCN(c2ncnc3c2c2ccc(S(=O)(=O)NC4(C#N)CC4)cc2n3-c2nnc(C(F)F)s2)CC1", "note": "[Example 25, N-(1-Cyanocyclopropyl)-9-(5-(difluoromethyl)-1,3,4-thiadiazol-2-yl)-4-(4-isobutyryl-1,4-diazepan-1-yl)-9H-pyrimido[4,5-b]indole-7-sulfonamide]", "values": [{"measurement": "IC50", "setting": "[1]", "result": "< 100", "unit": "nM"}, {"measurement": "IC50", "setting": "Kuramochi cell line", "result": "100 to 1000", "unit": "nM"}]}, {"smiles": "CC(C)C(=O)N1CC=C(c2ncnc3c2c2cc(F)c(S(=O)(=O)NC4(C#N)CC4)cc2n3-c2nnc(C(F)F)s2)CC1", "note": "[Example 91, N-(1-Cyanocyclopropyl)-9-(5-(difluoromethyl)-1,3,4-thiadiazol-2-yl)-6-fluoro-4-(1-isobutyryl-1,2,3,6-tetrahydropyridin-4-yl)-9H-pyrimido[4,5-b]indole-7-sulfonamide]", "values": [{"measurement": "IC50", "setting": "[1]", "result": "< 100", "unit": "nM"}, {"measurement": "IC50", "setting": "Kuramochi cell line", "result": "< 100", "unit": "nM"}]}, {"smiles": "N#CC1(NS(=O)(=O)c2ccc3c4c(N5CC6CC(C5)O6)ncnc4n(-c4nnc(C(F)F)s4)c3c2)CC1", "note": "[Example 176, 4-(6-oxa-3-azabicyclo[3.1.1]heptan-3-yl)-N-(1-cyanocyclopropyl)-9-(5-(difluoromethyl)-1,3,4-thiadiazol-2-yl)-9H-pyrimido[4,5-b]indole-7-sulfonamide]", "values": [{"measurement": "IC50", "setting": "[1]", "result": "< 100", "unit": "nM"}, {"measurement": "IC50", "setting": "Kuramochi cell line", "result": "< 100", "unit": "nM"}]}, {"smiles": "N#CC1(NS(=O)(=O)c2ccc3c4c(N5CCC(O)CC5)ccnc4n(-c4nnc(C(F)F)s4)c3c2)CC1", "note": "[Example 80, N-(1-Cyanocyclopropyl)-9-(5-(difluoromethyl)-1,3,4-thiadiazol-2-yl)-4-(4-hydroxypiperidin-1-yl)-9H-pyrido[2,3-b]indole-7-sulfonamide]", "values": [{"measurement": "IC50", "setting": "[1]", "result": "100 to 1000", "unit": "nM"}, {"measurement": "IC50", "setting": "Kuramochi cell line", "result": "100 to 1000", "unit": "nM"}]}, {"smiles": "N#CC1(NS(=O)(=O)c2ccc3c4c(N5CCN(C(=O)N6CCC6)CC5)ncnc4n(-c4nnc(C(F)F)s4)c3c2)CC1", "note": "[Example 63, 4-(4-(Azetidine-1-carbonyl)piperazin-1-yl)-N-(1-cyanocyclopropyl)-9-(5-(difluoromethyl)-1,3,4-thiadiazol-2-yl)-9H-pyrimido[4,5-b]indole-7-sulfonamide]", "values": [{"measurement": "IC50", "setting": "[1]", "result": "< 100", "unit": "nM"}, {"measurement": "IC50", "setting": "Kuramochi cell line", "result": "< 100", "unit": "nM"}]}, {"smiles": "CC1(NS(=O)(=O)c2ccc3c4c(C5CCN(C(=O)N6CC[C@H](O)C6)CC5)ncnc4n(-c4nnc(C(F)F)s4)c3c2)CC1", "note": "[Example 131, (S)-9-(5-(Difluoromethyl)-1,3,4-thiadiazol-2-yl)-4-(1-(3-hydroxypyrrolidine-1-carbonyl)piperidin-4-yl)-N-(1-methylcyclopropyl)-9H-pyrimido[4,5-b]indole-7-sulfonamide]", "values": [{"measurement": "IC50", "setting": "[1]", "result": "< 100", "unit": "nM"}, {"measurement": "IC50", "setting": "Kuramochi cell line", "result": "< 100", "unit": "nM"}]}, {"smiles": "COCCN(C)C(=O)N1CCC(c2ncnc3c2c2ccc(S(=O)(=O)NC4(C#N)CC4)cc2n3-c2nnc(C(F)F)s2)CC1", "note": "[Example 144, 4-(7-(N-(1-cyanocyclo-propyl)sulfamoyl)-9-(5-(difluoromethyl)-1,3,4-thiadiazol-2-yl)-9H-pyrimido[4,5-b]indol-4-yl)-N-(2-methoxyethyl)-N-methylpiperidine-1-carboxamide]", "values": [{"measurement": "IC50", "setting": "[1]", "result": "< 100", "unit": "nM"}, {"measurement": "IC50", "setting": "Kuramochi cell line", "result": "< 100", "unit": "nM"}]}, {"smiles": "CC1(C(=O)N2CCN(c3ncnc4c3c3ccc(S(=O)(=O)NC5(C#N)CC5)cc3n4-c3nnc(C(F)F)s3)CC2)CC1", "note": "[Example 10, N-(1-Cyanocyclopropyl)-9-(5-(difluoromethyl)-1,3,4-thiadiazol-2-yl)-4-(4-(1-methylcyclopropane-1-carbonyl)piperazin-1-yl)-9H-pyrimido[4,5-b]indole-7-sulfonamide]", "values": [{"measurement": "IC50", "setting": "[1]", "result": "< 100", "unit": "nM"}, {"measurement": "IC50", "setting": "Kuramochi cell line", "result": "< 100", "unit": "nM"}]}, {"smiles": "C[C@H]1CN(c2ncnc3c2c2ccc(S(=O)(=O)NC4(C#N)CC4)cc2n3-c2nnc(C(F)F)s2)CCN1C(=O)N(C)C", "note": "[Example 37, (S)-4-(7-(N-(1-Cyanocyclopropyl)sulfamoyl)-9-(5-(difluoromethyl)-1,3,4-thiadiazol-2-yl)-9H-pyrimido[4,5-b]indol-4-yl)-N,N,2-trimethylpiperazine-1-carboxamide]", "values": [{"measurement": "IC50", "setting": "[1]", "result": "< 100", "unit": "nM"}, {"measurement": "IC50", "setting": "Kuramochi cell line", "result": "< 100", "unit": "nM"}]}, {"smiles": "N#CC1(NS(=O)(=O)c2ccc3c4c(N5CCN(C(=O)C6COC6)CC5)ncnc4n(-c4nnc(C(F)F)s4)c3c2)CC1", "note": "[Example 66, N-(1-Cyanocyclopropyl)-9-(5-(difluoromethyl)-1,3,4-thiadiazol-2-yl)-4-(4-(oxetane-3-carbonyl)piperazin-1-yl)-9H-pyrimido[4,5-b]indole-7-sulfonamide]", "values": [{"measurement": "IC50", "setting": "[1]", "result": "< 100", "unit": "nM"}, {"measurement": "IC50", "setting": "Kuramochi cell line", "result": "< 100", "unit": "nM"}]}, {"smiles": "COCC(=O)N1CCC(c2ncnc3c2c2ccc(S(=O)(=O)NC4(C#N)CC4)cc2n3-c2nnc(C(F)F)s2)CC1", "note": "[Example 117, N-(1-cyanocyclopropyl)-9-(5-(difluoromethyl)-1,3,4-thiadiazol-2-yl)-4-(1-(2-methoxyacetyl)piperidin-4-yl)-9H-pyrimido[4,5-b]indole-7-sulfonamide]", "values": [{"measurement": "IC50", "setting": "[1]", "result": "< 100", "unit": "nM"}, {"measurement": "IC50", "setting": "Kuramochi cell line", "result": "< 100", "unit": "nM"}]}, {"smiles": "CN(C)C(=O)N1CCN(c2ncnc3c2c2ccc(S(=O)(=O)NC4(C#N)CC4)cc2n3-c2nnc(C(F)F)s2)CC1", "note": "[Example 6, 4-(7-(N-(1-Cyanocyclopropyl)sulfamoyl)-9-(5-(difluoromethyl)-1,3,4-thiadiazol-2-yl)-9H-pyrimido[4,5-b]indol-4-yl)-N,N-dimethylpiperazine-1-carboxamide]", "values": [{"measurement": "IC50", "setting": "[1]", "result": "< 100", "unit": "nM"}, {"measurement": "IC50", "setting": "Kuramochi cell line", "result": "< 100", "unit": "nM"}]}, {"smiles": "CN(C)[C@H]1CCN(C(=O)N2CCC(c3ncnc4c3c3ccc(S(=O)(=O)NC5(C#N)CC5)cc3n4-c3nnc(C(F)F)s3)CC2)C1", "note": "[Example 136, (S)-N-(1-Cyanocyclo-propyl)-9-(5-(difluoromethyl)-1,3,4-thiadiazol-2-yl)-4-(1-(3-(dimethylamino)pyrrolidine-1-carbonyl)piperidin-4-yl)-9H-pyrimido [4,5-b]indole-7-sulfonamide]", "values": [{"measurement": "IC50", "setting": "[1]", "result": "< 100", "unit": "nM"}, {"measurement": "IC50", "setting": "Kuramochi cell line", "result": "< 100", "unit": "nM"}]}, {"smiles": "C[C@H]1CN(c2ncnc3c2c2cc(F)c(S(=O)(=O)NC4(C#N)CC4)cc2n3-c2nnc(C(F)F)s2)CCN1C(=O)N(C)C", "note": "[Example 46, (S)-4-(7-(N-(1-Cyanocyclopropyl)sulfamoyl)-9-(5-(difluoromethyl)-1,3,4-thiadiazol-2-yl)-6-fluoro-9H-pyrimido[4,5-b]indol-4-yl)-N,N,2-trimethylpiperazine-1-carboxamide]", "values": [{"measurement": "IC50", "setting": "[1]", "result": "< 100", "unit": "nM"}, {"measurement": "IC50", "setting": "Kuramochi cell line", "result": "< 100", "unit": "nM"}]}, {"smiles": "CN1CCC(C(=O)N2CCN(c3ncnc4c3c3ccc(S(=O)(=O)NC5(C#N)CC5)cc3n4-c3nnc(C(F)F)s3)CC2)C1", "note": "(centres unmarked) [Example 67, N-(1-Cyanocyclopropyl)-9-(5-(difluoromethyl)-1,3,4-thiadiazol-2-yl)-4-(4-(1-methylpyrrolidine-3-carbonyl)piperazin-1-yl)-9H-pyrimido[4,5-b]indole-7-sulfonamide]", "values": [{"measurement": "IC50", "setting": "[1]", "result": "< 100", "unit": "nM"}, {"measurement": "IC50", "setting": "Kuramochi cell line", "result": "100 to 1000", "unit": "nM"}]}, {"smiles": "N#CC1(NS(=O)(=O)c2ccc3c4c(N5CCN(c6nccs6)CC5)ncnc4n(-c4nnc(C(F)F)s4)c3c2)CC1", "note": "[Example 16, N-(1-Cyanocyclopropyl)-9-(5-(difluoromethyl)-1,3,4-thiadiazol-2-yl)-4-(4-(thiazol-2-yl)piperazin-1-yl)-9H-pyrimido[4,5-b]indole-7-sulfonamide]", "values": [{"measurement": "IC50", "setting": "[1]", "result": "100 to 1000", "unit": "nM"}, {"measurement": "IC50", "setting": "Kuramochi cell line", "result": "100 to 1000", "unit": "nM"}]}, {"smiles": "N#CC1(NS(=O)(=O)c2cc3c(cc2F)c2c(N4CCC(O)CC4)ncnc2n3-c2nnc(C(F)F)s2)CC1", "note": "[Example 55, N-(1-Cyanocyclopropyl)-9-(5-(difluoromethyl)-1,3,4-thiadiazol-2-yl)-6-fluoro-4-(4-hydroxypiperidin-1-yl)-9H-pyrimido[4,5-b]indole-7-sulfonamide]", "values": [{"measurement": "IC50", "setting": "[1]", "result": "< 100", "unit": "nM"}, {"measurement": "IC50", "setting": "Kuramochi cell line", "result": "< 100", "unit": "nM"}]}, {"smiles": "CN(CCO)C(=O)N1CCC(c2ncnc3c2c2ccc(S(=O)(=O)NC4(C#N)CC4)cc2n3-c2nnc(C(F)F)s2)CC1", "note": "[Example 143, 4-(7-(N-(1-cyanocyclo-propyl)sulfamoyl)-9-(5-(difluoromethyl)-1,3,4-thiadiazol-2-yl)-9H-pyrimido[4,5-b]indol-4-yl)-N-(2-hydroxyethyl)-N-methylpiperidine-1-carboxamide]", "values": [{"measurement": "IC50", "setting": "[1]", "result": "< 100", "unit": "nM"}, {"measurement": "IC50", "setting": "Kuramochi cell line", "result": "100 to 1000", "unit": "nM"}]}, {"smiles": "CC1(NS(=O)(=O)c2ccc3c4c(C5CCN(C(=O)N6CCOCC6)CC5)ncnc4n(-c4nnc(C(F)F)s4)c3c2)CC1", "note": "[Example 133, 9-(5-(difluoromethyl)-1,3,4-thiadiazol-2-yl)-N-(1-methylcyclopropyl)-4-(1-(morpholine-4-carbonyl)piperidin-4-yl)-9H-pyrimido[4,5-b]indole-7-sulfonamide]", "values": [{"measurement": "IC50", "setting": "[1]", "result": "< 100", "unit": "nM"}, {"measurement": "IC50", "setting": "Kuramochi cell line", "result": "< 100", "unit": "nM"}]}, {"smiles": "N#CC1(NS(=O)(=O)c2ccc3c4c(N5CCN6CCC[C@H]6C5)ncnc4n(-c4nnc(C(F)F)s4)c3c2)CC1", "note": "[Example 160, (S)—N-(1-Cyanocyclopropyl)-9-(5-(difluoromethyl)-1,3,4-thiadiazol-2-yl)-4-(hexahydropyrrolo[1,2-a]pyrazin-2(1H)-yl)-9H-pyrimido[4,5-b]indole-7-sulfonamide]", "values": [{"measurement": "IC50", "setting": "[1]", "result": "< 100", "unit": "nM"}, {"measurement": "IC50", "setting": "Kuramochi cell line", "result": "< 100", "unit": "nM"}]}, {"smiles": "C[C@H]1CC(c2ncnc3c2c2ccc(S(=O)(=O)NC4(C#N)CC4)cc2n3-c2nnc(C(F)F)s2)CCN1", "note": "(stereo partly drawn) [Example 150, N-(1-Cyanocyclopropyl)-9-(5-(difluoromethyl)-1,3,4-thiadiazol-2-yl)-4-((2S)-2-methylpiperidin-4-yl)-9H-pyrimido[4,5-b]indole-7-sulfonamide]", "values": [{"measurement": "IC50", "setting": "[1]", "result": "< 100", "unit": "nM"}, {"measurement": "IC50", "setting": "Kuramochi cell line", "result": "100 to 1000", "unit": "nM"}]}]}
